pIC50, pKi: −log10 of the molar value. Active and inactive are the calls of the source. The calls are words filed in the database; no cut-off is given here.
Key:
[1] = AUC (0 to 6 hrs) in rat at 3 mg/kg, iv; format: ADME, organism-based; set-up: time < 6 hr, dose 3 mg/kg, route intravenous; settings: in vivo
Cytochrome P450 3A4 = Cytochrome P450 3A4 (Homo sapiens, UniProt P08684); assay: Inhibition of CYP3A4 (unknown origin); format: ADME
Cytochrome P450 2C9 = Cytochrome P450 2C9 (Homo sapiens, UniProt P11712); assay: Inhibition of CYP2C9 (unknown origin); format: ADME
Sequence of Cytochrome P450 2C9 (P11712 whole entry): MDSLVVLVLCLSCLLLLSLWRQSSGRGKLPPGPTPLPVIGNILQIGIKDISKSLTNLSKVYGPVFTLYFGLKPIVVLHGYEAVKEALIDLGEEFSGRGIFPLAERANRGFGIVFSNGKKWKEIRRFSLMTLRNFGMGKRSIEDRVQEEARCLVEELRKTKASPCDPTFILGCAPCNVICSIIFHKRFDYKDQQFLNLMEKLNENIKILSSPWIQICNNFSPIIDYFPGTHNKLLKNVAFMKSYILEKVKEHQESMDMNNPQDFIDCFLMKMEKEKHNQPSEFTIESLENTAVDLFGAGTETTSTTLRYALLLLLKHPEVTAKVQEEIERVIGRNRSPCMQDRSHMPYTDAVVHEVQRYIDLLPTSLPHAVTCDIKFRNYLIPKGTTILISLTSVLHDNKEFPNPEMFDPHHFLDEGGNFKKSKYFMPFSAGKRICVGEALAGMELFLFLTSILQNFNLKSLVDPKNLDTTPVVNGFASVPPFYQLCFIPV

Cytochrome P450 2D6 = Cytochrome P450 2D6 (Homo sapiens, UniProt P10635); assay: Inhibition of CYP2D6 (unknown origin); format: ADME
Sequence of Cytochrome P450 2D6 (P10635 whole entry): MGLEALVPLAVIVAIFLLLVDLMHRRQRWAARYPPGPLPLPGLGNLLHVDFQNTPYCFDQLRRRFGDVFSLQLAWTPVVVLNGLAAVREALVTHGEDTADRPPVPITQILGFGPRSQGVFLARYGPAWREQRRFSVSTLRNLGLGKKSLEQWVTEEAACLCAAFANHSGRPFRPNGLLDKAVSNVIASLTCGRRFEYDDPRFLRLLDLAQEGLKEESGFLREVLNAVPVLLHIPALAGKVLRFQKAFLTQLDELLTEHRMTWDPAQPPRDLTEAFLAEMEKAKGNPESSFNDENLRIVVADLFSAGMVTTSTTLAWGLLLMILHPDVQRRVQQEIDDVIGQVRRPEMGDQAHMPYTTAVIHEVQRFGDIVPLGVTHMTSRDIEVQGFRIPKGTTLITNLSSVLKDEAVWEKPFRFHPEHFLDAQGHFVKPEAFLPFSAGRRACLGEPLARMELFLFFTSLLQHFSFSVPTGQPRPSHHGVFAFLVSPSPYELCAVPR

[2] = target: T1, Nuclear receptor subfamily 1 group I member 2 (Homo sapiens, UniProt O75469); assay: Activation of PXR (unknown origin)
T1 sequence (O75469 whole entry): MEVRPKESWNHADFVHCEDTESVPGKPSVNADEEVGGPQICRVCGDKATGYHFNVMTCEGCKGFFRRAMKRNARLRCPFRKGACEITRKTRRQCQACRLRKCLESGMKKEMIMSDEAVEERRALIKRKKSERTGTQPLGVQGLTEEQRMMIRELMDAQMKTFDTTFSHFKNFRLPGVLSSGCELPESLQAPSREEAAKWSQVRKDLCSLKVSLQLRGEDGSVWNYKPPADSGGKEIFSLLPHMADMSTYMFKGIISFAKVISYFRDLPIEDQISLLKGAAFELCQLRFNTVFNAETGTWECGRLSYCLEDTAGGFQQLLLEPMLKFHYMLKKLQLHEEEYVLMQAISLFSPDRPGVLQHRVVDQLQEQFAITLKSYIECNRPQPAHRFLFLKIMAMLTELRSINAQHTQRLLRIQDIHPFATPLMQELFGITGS

[3] = Clearance in rat plasma at 3 mg/kg, iv; format: ADME, organism-based
[4] = Clearance in dog plasma at 1 mg/kg, iv; format: ADME, organism-based, Canis lupus familiaris
[5] = Clearance in monkey plasma at 1 mg/kg, iv; format: ADME, organism-based, Macaca mulatta; settings: rhesus monkey
[6] = Volume of distribution in rat at 3 mg/kg, iv; format: ADME, organism-based; settings: in vivo
[7] = Volume of distribution in dog at 1 mg/kg, iv; format: ADME, organism-based, Canis lupus familiaris; settings: in vivo
[8] = Volume of distribution in monkey at 1 mg/kg, iv; format: ADME, organism-based, Macaca mulatta; settings: rhesus monkey, in vivo
[9] = Half life in rat at 3 mg/kg, iv; format: ADME, organism-based; settings: in vivo
[10] = Half life in dog at 1 mg/kg, iv; format: ADME, organism-based, Canis lupus familiaris; settings: in vivo
[11] = Half life in monkey at 1 mg/kg, iv; format: ADME, organism-based, Macaca mulatta; settings: rhesus monkey, in vivo
[12] = AUC in rat at 3 mg/kg, iv; format: ADME, organism-based; settings: in vivo
[13] = AUC in dog at 1 mg/kg, iv; format: ADME, organism-based, Canis lupus familiaris; settings: in vivo
[14] = AUC in monkey at 1 mg/kg, iv; format: ADME, organism-based, Macaca mulatta; settings: rhesus monkey, in vivo
[15] = Cmax in rat at 10 mg/kg, po; format: ADME, organism-based; set-up: dose 10 mg/kg, route oral; settings: in vivo
[16] = Cmax in dog at 2 mg/kg, po; format: ADME, organism-based, Canis lupus familiaris; set-up: dose 2 mg/kg, route oral; settings: in vivo
[17] = Cmax in rhesus monkey at 10 mg/kg, po; format: ADME, organism-based, Macaca mulatta; set-up: dose 10 mg/kg, route oral; settings: in vivo
[18] = Tmax in rat at 10 mg/kg, po; format: ADME, organism-based; settings: in vivo
[19] = Tmax in dog at 2 mg/kg, po; format: ADME, organism-based, Canis lupus familiaris; settings: in vivo
[20] = Tmax in rhesus monkey at 10 mg/kg, po; format: ADME, organism-based, Macaca mulatta; settings: in vivo
[21] = AUC in rat at 10 mg/kg, po; format: ADME, organism-based; settings: in vivo
[22] = AUC in dog at 2 mg/kg, po; format: ADME, organism-based, Canis lupus familiaris; settings: in vivo
[23] = AUC in rhesus monkey at 10 mg/kg, po; format: ADME, organism-based, Macaca mulatta; settings: in vivo
[24] = Oral bioavailability in rat at 10 mg/kg; format: ADME, organism-based; settings: in vivo
[25] = Oral bioavailability in dog at 2 mg/kg; format: ADME, organism-based, Canis lupus familiaris; settings: in vivo
[26] = Oral bioavailability in rhesus monkey at 10 mg/kg; format: ADME, organism-based, Macaca mulatta; settings: in vivo
Ovis aries [27] = assay: Anti-asthmatic activity in sheep lung allergen model assessed as inhibition of antigen-induced late airway response at 1 mg/kg administered as 4 hrs iv infusion starting at 1 hr prior to antigen challenge measured 4 to 8 hrs post antigen challenge; format: functional, organism-based
Ovis aries [28] = assay: Anti-asthmatic activity in sheep lung allergen model assessed as inhibition of antigen-induced airway hyper-responsiveness at 1 mg/kg administered as 4 hrs iv infusion starting at 1 hr prior to antigen challenge measured 24 hrs post antigen challenge; format: functional, organism-based
Rattus norvegicus [29] = assay: Antiinflammatory activity in Brown Norway rat assessed as inhibition of OVA-induced eosinophils levels in BAL cells at 3 mg/kg, po qd for 3 days followed by aerosolized OVA challenge for 30 mins administered 2 hrs post last compound dose on day 3 measured 24 hrs post aerosolized OVA challenge relative to control; format: functional
Rattus norvegicus [30] = assay: Antiinflammatory activity in Brown Norway rat assessed as inhibition of OVA-induced neutrophils levels in BAL cells at 3 mg/kg, po qd for 3 days followed by aerosolized OVA challenge for 30 mins administered 2 hrs post last compound dose on day 3 measured 24 hrs post aerosolized OVA challenge relative to control; format: functional
Rattus norvegicus [31] = assay: Antiinflammatory activity in Brown Norway rat assessed as inhibition of OVA-induced total cell levels in BAL cells at 3 mg/kg, po qd for 3 days followed by aerosolized OVA challenge for 30 mins administered 2 hrs post last compound dose on day 3 measured 24 hrs post aerosolized OVA challenge relative to control; format: functional
Rattus norvegicus [32] = assay: Antiinflammatory activity in Brown Norway rat assessed as inhibition of OVA-induced neutrophils levels in BAL cells at 10 mg/kg, po qd for 3 days followed by aerosolized OVA challenge for 30 mins administered 2 hrs post last compound dose on day 3 measured 24 hrs post aerosolized OVA challenge relative to control; format: functional
Rattus norvegicus [33] = assay: Antiinflammatory activity in Brown Norway rat assessed as inhibition of OVA-induced eosinophils levels in BAL cells at 10 mg/kg, po qd for 3 days followed by aerosolized OVA challenge for 30 mins administered 2 hrs post last compound dose on day 3 measured 24 hrs post aerosolized OVA challenge relative to control; format: functional
Rattus norvegicus [34] = assay: Antiinflammatory activity in Brown Norway rat assessed as inhibition of OVA-induced total cell levels in BAL cells at 10 mg/kg, po qd for 3 days followed by aerosolized OVA challenge for 30 mins administered 2 hrs post last compound dose on day 3 measured 24 hrs post aerosolized OVA challenge relative to control; format: functional
Rattus norvegicus [35] = assay: Antiinflammatory activity in Brown Norway rat assessed as inhibition of OVA-induced eosinophils levels in BAL cells at 30 mg/kg, po qd for 3 days followed by aerosolized OVA challenge for 30 mins administered 2 hrs post last compound dose on day 3 measured 24 hrs post aerosolized OVA challenge relative to control; format: functional
Rattus norvegicus [36] = assay: Antiinflammatory activity in Brown Norway rat assessed as inhibition of OVA-induced neutrophils levels in BAL cells at 30 mg/kg, po qd for 3 days followed by aerosolized OVA challenge for 30 mins administered 2 hrs post last compound dose on day 3 measured 24 hrs post aerosolized OVA challenge relative to control; format: functional
Rattus norvegicus [37] = assay: Antiinflammatory activity in Brown Norway rat assessed as inhibition of OVA-induced total cell levels in BAL cells at 30 mg/kg, po qd for 3 days followed by aerosolized OVA challenge for 30 mins administered 2 hrs post last compound dose on day 3 measured 24 hrs post aerosolized OVA challenge relative to control; format: functional
[38] = target: T2, Prostaglandin D2 receptor 2 (Homo sapiens, UniProt Q9Y5Y4)
T2 sequence (Q9Y5Y4 whole entry): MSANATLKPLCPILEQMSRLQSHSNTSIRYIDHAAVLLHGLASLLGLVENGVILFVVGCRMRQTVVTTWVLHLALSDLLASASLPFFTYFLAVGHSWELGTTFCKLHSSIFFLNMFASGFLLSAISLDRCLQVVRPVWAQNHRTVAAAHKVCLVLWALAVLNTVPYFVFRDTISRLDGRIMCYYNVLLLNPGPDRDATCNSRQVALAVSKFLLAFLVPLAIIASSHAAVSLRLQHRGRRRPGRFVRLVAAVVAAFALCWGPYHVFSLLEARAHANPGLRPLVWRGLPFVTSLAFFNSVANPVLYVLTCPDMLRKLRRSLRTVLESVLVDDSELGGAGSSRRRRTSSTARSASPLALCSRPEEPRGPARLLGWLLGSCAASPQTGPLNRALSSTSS

[39] = target: T2, Prostaglandin D2 receptor 2; remark: listed apart in the source
Description: Antagonist activity at human CRTh2 expressed in CHOK1 cells assessed as inhibition of PGD2-induced beta-arrestin recruitment incubated for 30 mins followed by PGD2 stimulation measured after 60 mins by PathHunter based chemiluminescence assay

[40] = target: T2, Prostaglandin D2 receptor 2; assay: biochemical
Description: Displacement of [3H]PGD2 from human CRTh2 expressed in HEK cell membranes after 60 mins by scintillation counting method

Sequence of Cytochrome P450 3A4 (P08684 whole entry): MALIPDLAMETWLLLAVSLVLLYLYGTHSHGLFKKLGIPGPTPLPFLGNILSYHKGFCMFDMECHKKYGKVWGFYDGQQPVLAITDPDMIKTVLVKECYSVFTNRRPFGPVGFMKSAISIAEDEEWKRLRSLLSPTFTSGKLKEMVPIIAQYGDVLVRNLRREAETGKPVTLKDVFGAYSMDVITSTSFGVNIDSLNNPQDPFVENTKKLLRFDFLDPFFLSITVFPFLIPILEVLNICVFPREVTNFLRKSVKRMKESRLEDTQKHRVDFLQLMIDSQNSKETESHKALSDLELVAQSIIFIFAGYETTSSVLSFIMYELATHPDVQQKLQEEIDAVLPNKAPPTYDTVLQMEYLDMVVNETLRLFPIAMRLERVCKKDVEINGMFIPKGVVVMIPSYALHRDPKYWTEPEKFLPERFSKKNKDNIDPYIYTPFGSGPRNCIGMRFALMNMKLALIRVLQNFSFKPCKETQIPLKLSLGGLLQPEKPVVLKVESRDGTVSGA

With `O=C(O)CCC(=O)N(C1CC1)[C@H]1c2cc(F)ccc2N(C(=O)c2ccc(OC(F)(F)F)cc2)[C@H]2CCC[C@H]21` the AUC(0-t) at 6 h [1] was 3.35 µM·h, the “inhibition (INH)” value (Cytochrome P450 3A4) was “Not Active” and the “inhibition (INH)” value (Cytochrome P450 2C9) was “Not Active”. For the same compound, the “inhibition (INH)” value (Cytochrome P450 2D6) was “Not Active”, the Activity [2] was “Not Active” and the clearance [3] was 29.1 mL/min/kg. For the same compound, the clearance [4] was 9.4 mL/min/kg, the clearance [5] was 16.4 mL/min/kg and the Vd [6] was 5.8 L/kg. The Vd [7] was 2.4 L/kg, the Vd [8] was 5.8 L/kg and the half-life [9] was 7.5 h. The half-life [10] was 10.4 h, the half-life [11] was 12.9 h and the AUC [12] was 3.4 µM·h. For the same compound, the AUC [13] was 3.46 µM·h, the AUC [14] was 1.92 µM·h and the Cmax [15] was 2070 nM. For the same compound, the Cmax [16] was 2470 nM, the Cmax [17] was 5690 nM and the Tmax [18] was 0.58 h. The Tmax [19] was 0.42 h, the Tmax [20] was 0.42 h and the AUC [21] was 6.77 µM·h. The AUC [22] was 8.51 µM·h, the AUC [23] was 6.76 µM·h and the bioavailability [24] was 61%. For the same compound, the bioavailability [25] was 121%, the bioavailability [26] was 28% and the inhibition (Ovis aries [27]) was “Active”. The inhibition (Ovis aries [28]) was “Active”, the inhibition in vivo at 3 mg/kg (Rattus norvegicus [29]) was 36% and the inhibition in vivo at 3 mg/kg (Rattus norvegicus [30]) was 56%. It also gave an inhibition in vivo at 3 mg/kg (Rattus norvegicus [31]) of 52%, an inhibition in vivo at 10 mg/kg (Rattus norvegicus [32]) of 49% and an inhibition in vivo at 10 mg/kg (Rattus norvegicus [33]) of 65%. It also gave an inhibition in vivo at 10 mg/kg (Rattus norvegicus [34]) of 68%, an inhibition in vivo at 30 mg/kg (Rattus norvegicus [35]) of 58% and an inhibition in vivo at 30 mg/kg (Rattus norvegicus [36]) of 77%. The inhibition in vivo at 30 mg/kg (Rattus norvegicus [37]) was 78%, the pIC50 [38] was 8.10 and the pIC50 [39] was 8.46. For the same compound, the pKi [40] was 8.30.
